Experiments:
Format in all cases: in vivo
[1] = tested on: ducksalad (Heteranthera limosa); assay: Test B flooded paddy test, visual rating; conditions: Flood, 250 g ai/ha, applied to paddy water, rated after 13 to 15 d
How it was run: (§1)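 Ratings use a 0-100 visual scale, where 100 is complete control, and compare treated plants with controls after 13 to 15 d of greenhouse growth. Compound went straight into paddy water kept 3 cm over the soil surface, applied to seedlings at the 2-leaf stage.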

[2] = tested on: barnyardgrass (Echinochloa crus-galli); assay: Test B flooded paddy test, visual rating; conditions: Flood, 250 g ai/ha, applied to paddy water, rated after 13 to 15 d
How it was run: as §1

[3] = tested on: rice (Oryza sativa); assay: Test B flooded paddy test, visual rating; conditions: Flood, 250 g ai/ha, applied to paddy water, rated after 13 to 15 d
How it was run: as §1

[4] = tested on: sedge, umbrella (small-flower umbrella sedge, Cyperus difformis); assay: Test B flooded paddy test, visual rating; conditions: Flood, 250 g ai/ha, applied to paddy water, rated after 13 to 15 d
How it was run: as §1

[5] = tested on: ragweed (common ragweed, Ambrosia elatior); assay: Test A postemergence application, visual injury rating; conditions: 0 to 100 scale, 0 no effect, 100 complete control
How it was run: (§2)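 Injury ratings, 0 (no effect) to 100 (complete control), were scored visually versus untreated plants roughly 10 d after treatment under greenhouse conditions. Treatments used surfactant-containing solvent formulations, sprayed onto soil preemergence or onto one- to two-leaf seedlings (2-10 cm) postemergence, grown in a loam-sand mix.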

[6] = tested on: blackgrass (Alopecurus myosuroides); assay: as above; conditions: 0 to 100 scale, 0 no effect, 100 complete control
How it was run: as §2

[7] = tested on: ryegrass, It. (Italian ryegrass, Lolium multiflorum); assay: as above; conditions: 0 to 100 scale, 0 no effect, 100 complete control
How it was run: as §2

[8] = tested on: foxtail, giant (giant foxtail, Setaria faberii); assay: as above; conditions: 0 to 100 scale, 0 no effect, 100 complete control
How it was run: as §2

[9] = tested on: barnyardgrass (Echinochloa crus-galli); assay: as above; conditions: 0 to 100 scale, 0 no effect, 100 complete control
How it was run: as §2

[10] = tested on: pigweed (Amaranthus retroflexus); assay: as above; conditions: 0 to 100 scale, 0 no effect, 100 complete control
How it was run: as §2

[11] = tested on: corn (Zea mays); assay: as above; conditions: 0 to 100 scale, 0 no effect, 100 complete control
How it was run: as §2

[12] = tested on: kochia (Kochia scoparia); assay: as above; conditions: 0 to 100 scale, 0 no effect, 100 complete control
How it was run: as §2

[13] = tested on: galium (catchweed bedstraw, Galium aparine); assay: as above; conditions: 0 to 100 scale, 0 no effect, 100 complete control
How it was run: as §2

[14] = tested on: wheat (Triticum aestivum); assay: as above; conditions: 0 to 100 scale, 0 no effect, 100 complete control
How it was run: as §2

[15] = tested on: ragweed (common ragweed, Ambrosia elatior); assay: Test A preemergence, directed soil spray, visual injury rating; conditions: 0 is no effect, 100 is complete control
How it was run: as §2

[16] = tested on: ryegrass, It. (Italian ryegrass, Lolium multiflorum); assay: as above; conditions: 0 is no effect, 100 is complete control
How it was run: as §2

[17] = tested on: foxtail, giant (giant foxtail, Setaria faberii); assay: as above; conditions: 0 is no effect, 100 is complete control
How it was run: as §2

[18] = tested on: barnyardgrass (Echinochloa crus-galli); assay: as above; conditions: 0 is no effect, 100 is complete control
How it was run: as §2

[19] = tested on: pigweed (Amaranthus retroflexus); assay: as above; conditions: 0 is no effect, 100 is complete control
How it was run: as §2

[20] = tested on: kochia (Kochia scoparia); assay: as above; conditions: 0 is no effect, 100 is complete control
How it was run: as §2

Cc1cc2c(-c3c(OC(=O)c4ccccc4)c(C)nn(C)c3=O)ccc(Cl)c2o1 [Compound 44]
Ducksalad plant response rating (0 to 100 scale, 0 is no effect, 100 is complete control) [1]: 0 | Barnyardgrass plant response rating (0 to 100 scale, 0 is no effect, 100 is complete control) [2]: 0 | Rice plant response rating (0 to 100 scale, 0 is no effect, 100 is complete control) [3]: 0 | Sedge, Umbrella plant response rating (0 to 100 scale, 0 is no effect, 100 is complete control) [4]: 0 | Ragweed plant response rating ([5]; 31 g ai/ha): 0 | Ragweed plant response rating ([5]; 125 g ai/ha): 0 | Blackgrass plant response rating ([6]; 31 g ai/ha): 0 | Blackgrass plant response rating ([6]; 125 g ai/ha): 0 | Ryegrass, It. plant response rating ([7]; 31 g ai/ha): 0 | Ryegrass, It. plant response rating ([7]; 125 g ai/ha): 0 | Foxtail, Giant plant response rating ([8]; 31 g ai/ha): 0 | Foxtail, Giant plant response rating ([8]; 125 g ai/ha): 0 | Barnyardgrass plant response rating ([9]; 31 g ai/ha): 0 | Barnyardgrass plant response rating ([9]; 125 g ai/ha): 0 | Pigweed plant response rating ([10]; 31 g ai/ha): 0 | Pigweed plant response rating ([10]; 125 g ai/ha): 0 | Corn plant response rating ([11]; 31 g ai/ha): 0 | Corn plant response rating ([11]; 125 g ai/ha): 0 | Kochia plant response rating ([12]; 31 g ai/ha): 0 | Kochia plant response rating ([12]; 125 g ai/ha): 0 | Galium plant response rating ([13]; 31 g ai/ha): 0 | Galium plant response rating ([13]; 125 g ai/ha): 0 | Wheat plant response rating ([14]; 31 g ai/ha): 0 | Wheat plant response rating ([14]; 125 g ai/ha): 0 | Plant response rating (0 to 100 scale), Ragweed ([15]; 31 g ai/ha): 0 | Plant response rating (0 to 100 scale), Ragweed ([15]; 125 g ai/ha): 0 | Plant response rating (0 to 100 scale), Ryegrass, It. ([16]; 31 g ai/ha): 0 | Plant response rating (0 to 100 scale), Ryegrass, It. ([16]; 125 g ai/ha): 20 | Plant response rating (0 to 100 scale), Foxtail, Giant ([17]; 31 g ai/ha): 0 | Plant response rating (0 to 100 scale), Foxtail, Giant ([17]; 125 g ai/ha): 0 | Plant response rating (0 to 100 scale), Barnyardgrass ([18]; 31 g ai/ha): 0 | Plant response rating (0 to 100 scale), Barnyardgrass ([18]; 125 g ai/ha): 0 | Plant response rating (0 to 100 scale), Pigweed ([19]; 31 g ai/ha): 0 | Plant response rating (0 to 100 scale), Pigweed ([19]; 125 g ai/ha): 0 | Plant response rating (0 to 100 scale), Kochia ([20]; 31 g ai/ha): 0 | Plant response rating (0 to 100 scale), Kochia ([20]; 125 g ai/ha): 0

Cc1cc2c(-c3c(O)c(C)nn(C)c3=O)ccc(Cl)c2o1 [Compound 45]
Ducksalad plant response rating (0 to 100 scale, 0 is no effect, 100 is complete control) [1]: 30 | Barnyardgrass plant response rating (0 to 100 scale, 0 is no effect, 100 is complete control) [2]: 0 | Rice plant response rating (0 to 100 scale, 0 is no effect, 100 is complete control) [3]: 0 | Sedge, Umbrella plant response rating (0 to 100 scale, 0 is no effect, 100 is complete control) [4]: 50 | Ragweed plant response rating ([5]; 31 g ai/ha): 0 | Ragweed plant response rating ([5]; 125 g ai/ha): 0 | Blackgrass plant response rating ([6]; 31 g ai/ha): 0 | Blackgrass plant response rating ([6]; 125 g ai/ha): 0 | Ryegrass, It. plant response rating ([7]; 31 g ai/ha): 20 | Ryegrass, It. plant response rating ([7]; 125 g ai/ha): 60 | Foxtail, Giant plant response rating ([8]; 31 g ai/ha): 0 | Foxtail, Giant plant response rating ([8]; 125 g ai/ha): 0 | Barnyardgrass plant response rating ([9]; 31 g ai/ha): 0 | Barnyardgrass plant response rating ([9]; 125 g ai/ha): 0 | Pigweed plant response rating ([10]; 31 g ai/ha): 0 | Pigweed plant response rating ([10]; 125 g ai/ha): 10 | Corn plant response rating ([11]; 31 g ai/ha): 0 | Corn plant response rating ([11]; 125 g ai/ha): 0 | Kochia plant response rating ([12]; 31 g ai/ha): 0 | Kochia plant response rating ([12]; 125 g ai/ha): 0 | Galium plant response rating ([13]; 31 g ai/ha): 20 | Galium plant response rating ([13]; 125 g ai/ha): 70 | Wheat plant response rating ([14]; 31 g ai/ha): 0 | Wheat plant response rating ([14]; 125 g ai/ha): 0 | Plant response rating (0 to 100 scale), Ragweed ([15]; 31 g ai/ha): 0 | Plant response rating (0 to 100 scale), Ragweed ([15]; 125 g ai/ha): 10 | Plant response rating (0 to 100 scale), Ryegrass, It. ([16]; 31 g ai/ha): 0 | Plant response rating (0 to 100 scale), Ryegrass, It. ([16]; 125 g ai/ha): 30 | Plant response rating (0 to 100 scale), Foxtail, Giant ([17]; 31 g ai/ha): 0 | Plant response rating (0 to 100 scale), Foxtail, Giant ([17]; 125 g ai/ha): 0 | Plant response rating (0 to 100 scale), Barnyardgrass ([18]; 31 g ai/ha): 0 | Plant response rating (0 to 100 scale), Barnyardgrass ([18]; 125 g ai/ha): 0 | Plant response rating (0 to 100 scale), Pigweed ([19]; 31 g ai/ha): 0 | Plant response rating (0 to 100 scale), Pigweed ([19]; 125 g ai/ha): 50 | Plant response rating (0 to 100 scale), Kochia ([20]; 31 g ai/ha): 0 | Plant response rating (0 to 100 scale), Kochia ([20]; 125 g ai/ha): 0

Cc1ccc2sc(Cl)cc2c1-c1c(O)c(C)nn(C)c1=O [Compound 46]
Ducksalad plant response rating (0 to 100 scale, 0 is no effect, 100 is complete control) [1]: 0 | Barnyardgrass plant response rating (0 to 100 scale, 0 is no effect, 100 is complete control) [2]: 0 | Rice plant response rating (0 to 100 scale, 0 is no effect, 100 is complete control) [3]: 0 | Sedge, Umbrella plant response rating (0 to 100 scale, 0 is no effect, 100 is complete control) [4]: 70 | Ragweed plant response rating ([5]; 31 g ai/ha): 90 | Ragweed plant response rating ([5]; 125 g ai/ha): 100 | Blackgrass plant response rating ([6]; 31 g ai/ha): 40 | Blackgrass plant response rating ([6]; 125 g ai/ha): 70 | Ryegrass, It. plant response rating ([7]; 31 g ai/ha): 90 | Ryegrass, It. plant response rating ([7]; 125 g ai/ha): 100 | Foxtail, Giant plant response rating ([8]; 31 g ai/ha): 50 | Foxtail, Giant plant response rating ([8]; 125 g ai/ha): 90 | Barnyardgrass plant response rating ([9]; 31 g ai/ha): 10 | Barnyardgrass plant response rating ([9]; 125 g ai/ha): 30 | Pigweed plant response rating ([10]; 31 g ai/ha): 90 | Pigweed plant response rating ([10]; 125 g ai/ha): 90 | Corn plant response rating ([11]; 31 g ai/ha): 0 | Corn plant response rating ([11]; 125 g ai/ha): 20 | Kochia plant response rating ([12]; 31 g ai/ha): 60 | Kochia plant response rating ([12]; 125 g ai/ha): 90 | Galium plant response rating ([13]; 31 g ai/ha): 90 | Galium plant response rating ([13]; 125 g ai/ha): 90 | Wheat plant response rating ([14]; 31 g ai/ha): 0 | Wheat plant response rating ([14]; 125 g ai/ha): 20 | Plant response rating (0 to 100 scale), Ragweed ([15]; 31 g ai/ha): 80 | Plant response rating (0 to 100 scale), Ragweed ([15]; 125 g ai/ha): 80 | Plant response rating (0 to 100 scale), Ryegrass, It. ([16]; 31 g ai/ha): 90 | Plant response rating (0 to 100 scale), Ryegrass, It. ([16]; 125 g ai/ha): 100 | Plant response rating (0 to 100 scale), Foxtail, Giant ([17]; 31 g ai/ha): 30 | Plant response rating (0 to 100 scale), Foxtail, Giant ([17]; 125 g ai/ha): 80 | Plant response rating (0 to 100 scale), Barnyardgrass ([18]; 31 g ai/ha): 0 | Plant response rating (0 to 100 scale), Barnyardgrass ([18]; 125 g ai/ha): 50 | Plant response rating (0 to 100 scale), Pigweed ([19]; 31 g ai/ha): 100 | Plant response rating (0 to 100 scale), Pigweed ([19]; 125 g ai/ha): 100 | Plant response rating (0 to 100 scale), Kochia ([20]; 31 g ai/ha): 50 | Plant response rating (0 to 100 scale), Kochia ([20]; 125 g ai/ha): 80

Source: US10750743B2, “Pyridazinone herbicides” (E.I. DU PONT DE NEMOURS AND COMPANY, priority 2015, dated 2020)
